Assay results published in ChEMBL document CHEMBL1201862, “PubChem BioAssay data set” (2004).
One block for each molecule: values may come before it. The source made the active and inactive calls.

What was measured:
[1] = non-specific cell cytotoxicity, dose response, cytotoxicity control for PAX8 inhibitor project, plate reader, dry powder samples (AID 743021); type: functional, cell-based
[2] = Luminescence-based dose response cell-based high throughput screening assay for cytotoxic compounds using the IEC-6 intestinal epithelial cell line. [Related pubchem assays: 1858 (Summary AID.), 1825 (Counterscreen.), 1907 (Confirmation screen.)]; type: functional
[3] = cytotoxicity toward NIH3T3 fibroblasts, dose response, counter-screen, cell-based, ATP luminescence, mouse fibroblasts (AID 2010); type: functional;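 also: cells exposed to compound for about 90 hours before reading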
[4] = Shn3 3'UTR reporter inhibitors, dose response, cell-based, Clone20 osteoblasts, firefly luciferase, cherry-picked (AID 624132); type: functional;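 also: firefly luciferase luminescence from reporter carrying the Shn3 3'UTR in osteoblasts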
[5] = control 3'UTR Renilla luciferase suppression, dose response, counter-screen for Shn3 inhibitor project, cell-based, Clone20-Shn3RL, cherry-picked (AID 624133); type: functional
[6] = target: Dual specificity protein kinase CLK2 (Homo sapiens, UniProt P49760); type: functional
Dual specificity protein kinase CLK2, sequence (P49760 whole entry): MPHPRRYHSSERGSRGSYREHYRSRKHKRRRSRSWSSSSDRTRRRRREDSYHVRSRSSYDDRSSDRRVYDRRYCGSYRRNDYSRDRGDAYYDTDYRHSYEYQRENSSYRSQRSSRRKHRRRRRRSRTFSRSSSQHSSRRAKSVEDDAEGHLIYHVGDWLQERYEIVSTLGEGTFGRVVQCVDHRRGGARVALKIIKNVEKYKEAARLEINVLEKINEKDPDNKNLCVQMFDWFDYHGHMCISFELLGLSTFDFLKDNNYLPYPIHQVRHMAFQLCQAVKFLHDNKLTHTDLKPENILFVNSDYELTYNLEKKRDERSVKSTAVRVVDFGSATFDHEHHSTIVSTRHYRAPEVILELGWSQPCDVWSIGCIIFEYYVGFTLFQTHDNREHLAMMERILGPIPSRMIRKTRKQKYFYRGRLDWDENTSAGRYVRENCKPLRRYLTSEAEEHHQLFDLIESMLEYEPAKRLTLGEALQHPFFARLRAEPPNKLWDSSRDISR

[7] = target: Serine/threonine-protein kinase TBK1 (Homo sapiens, UniProt Q9UHD2); assay: Navigating the Kinome. Panel member name: TBK1; type: functional
Serine/threonine-protein kinase TBK1, sequence (Q9UHD2 whole entry): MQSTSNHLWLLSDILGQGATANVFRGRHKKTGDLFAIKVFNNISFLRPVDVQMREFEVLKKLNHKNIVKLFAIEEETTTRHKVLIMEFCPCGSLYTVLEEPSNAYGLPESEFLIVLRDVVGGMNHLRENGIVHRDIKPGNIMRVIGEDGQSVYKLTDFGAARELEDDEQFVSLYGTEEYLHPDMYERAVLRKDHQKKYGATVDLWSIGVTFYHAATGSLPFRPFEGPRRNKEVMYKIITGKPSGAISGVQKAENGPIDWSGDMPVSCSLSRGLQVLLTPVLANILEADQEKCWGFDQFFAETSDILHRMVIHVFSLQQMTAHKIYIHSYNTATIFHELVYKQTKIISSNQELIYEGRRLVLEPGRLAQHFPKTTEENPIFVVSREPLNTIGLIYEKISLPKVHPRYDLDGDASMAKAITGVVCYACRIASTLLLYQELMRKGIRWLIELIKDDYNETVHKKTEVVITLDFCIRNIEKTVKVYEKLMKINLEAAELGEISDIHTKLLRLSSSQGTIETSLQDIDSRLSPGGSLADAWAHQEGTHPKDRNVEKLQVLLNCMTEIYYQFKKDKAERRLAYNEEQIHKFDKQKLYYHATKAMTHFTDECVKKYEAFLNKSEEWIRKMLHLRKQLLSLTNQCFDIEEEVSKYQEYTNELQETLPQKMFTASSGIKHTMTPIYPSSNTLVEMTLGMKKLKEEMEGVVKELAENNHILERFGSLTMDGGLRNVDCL

[8] = target: Death-associated protein kinase 3 (Homo sapiens, UniProt O43293); type: functional;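 also: measured as one member of a kinome-wide profiling panel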
Death-associated protein kinase 3, sequence (O43293 whole entry): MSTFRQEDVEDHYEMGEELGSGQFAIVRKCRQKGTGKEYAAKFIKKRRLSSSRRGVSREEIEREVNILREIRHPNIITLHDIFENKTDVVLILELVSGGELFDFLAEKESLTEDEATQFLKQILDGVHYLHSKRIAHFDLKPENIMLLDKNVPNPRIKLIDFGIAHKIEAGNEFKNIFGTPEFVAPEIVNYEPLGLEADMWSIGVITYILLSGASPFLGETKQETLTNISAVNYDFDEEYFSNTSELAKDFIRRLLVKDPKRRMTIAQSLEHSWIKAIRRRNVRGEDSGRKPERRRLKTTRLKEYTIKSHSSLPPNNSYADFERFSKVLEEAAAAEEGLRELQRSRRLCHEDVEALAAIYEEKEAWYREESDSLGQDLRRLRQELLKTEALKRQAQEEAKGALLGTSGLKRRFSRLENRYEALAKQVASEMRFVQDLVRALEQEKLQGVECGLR

[9] = target: Fibroblast growth factor receptor 1 (Homo sapiens, UniProt P11362); type: functional
Fibroblast growth factor receptor 1, sequence (P11362 whole entry): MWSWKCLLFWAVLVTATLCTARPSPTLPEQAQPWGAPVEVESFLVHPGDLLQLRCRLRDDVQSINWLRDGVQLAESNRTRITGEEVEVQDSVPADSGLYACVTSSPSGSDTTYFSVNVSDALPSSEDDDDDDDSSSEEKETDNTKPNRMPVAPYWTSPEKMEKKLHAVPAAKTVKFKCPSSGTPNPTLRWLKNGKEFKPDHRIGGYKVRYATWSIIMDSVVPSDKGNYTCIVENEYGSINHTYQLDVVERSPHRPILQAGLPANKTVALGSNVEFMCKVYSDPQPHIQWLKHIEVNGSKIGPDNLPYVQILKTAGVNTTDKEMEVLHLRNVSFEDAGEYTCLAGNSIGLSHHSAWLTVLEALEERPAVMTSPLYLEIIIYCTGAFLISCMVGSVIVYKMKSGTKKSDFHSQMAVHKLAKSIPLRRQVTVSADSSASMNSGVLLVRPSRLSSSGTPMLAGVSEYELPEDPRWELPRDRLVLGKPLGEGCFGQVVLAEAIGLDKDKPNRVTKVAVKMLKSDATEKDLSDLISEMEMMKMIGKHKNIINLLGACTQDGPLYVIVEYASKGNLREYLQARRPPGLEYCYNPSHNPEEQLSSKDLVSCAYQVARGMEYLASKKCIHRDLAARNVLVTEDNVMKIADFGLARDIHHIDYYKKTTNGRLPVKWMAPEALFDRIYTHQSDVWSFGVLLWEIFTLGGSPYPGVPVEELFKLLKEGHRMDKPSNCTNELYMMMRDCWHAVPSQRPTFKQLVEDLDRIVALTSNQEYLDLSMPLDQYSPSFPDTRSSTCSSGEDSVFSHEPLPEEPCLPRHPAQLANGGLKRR

Focal adhesion kinase 1 = Focal adhesion kinase 1 (Homo sapiens, UniProt Q05397); type: functional;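 also: measured as one member of a kinome panel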
Focal adhesion kinase 1, sequence (Q05397 whole entry): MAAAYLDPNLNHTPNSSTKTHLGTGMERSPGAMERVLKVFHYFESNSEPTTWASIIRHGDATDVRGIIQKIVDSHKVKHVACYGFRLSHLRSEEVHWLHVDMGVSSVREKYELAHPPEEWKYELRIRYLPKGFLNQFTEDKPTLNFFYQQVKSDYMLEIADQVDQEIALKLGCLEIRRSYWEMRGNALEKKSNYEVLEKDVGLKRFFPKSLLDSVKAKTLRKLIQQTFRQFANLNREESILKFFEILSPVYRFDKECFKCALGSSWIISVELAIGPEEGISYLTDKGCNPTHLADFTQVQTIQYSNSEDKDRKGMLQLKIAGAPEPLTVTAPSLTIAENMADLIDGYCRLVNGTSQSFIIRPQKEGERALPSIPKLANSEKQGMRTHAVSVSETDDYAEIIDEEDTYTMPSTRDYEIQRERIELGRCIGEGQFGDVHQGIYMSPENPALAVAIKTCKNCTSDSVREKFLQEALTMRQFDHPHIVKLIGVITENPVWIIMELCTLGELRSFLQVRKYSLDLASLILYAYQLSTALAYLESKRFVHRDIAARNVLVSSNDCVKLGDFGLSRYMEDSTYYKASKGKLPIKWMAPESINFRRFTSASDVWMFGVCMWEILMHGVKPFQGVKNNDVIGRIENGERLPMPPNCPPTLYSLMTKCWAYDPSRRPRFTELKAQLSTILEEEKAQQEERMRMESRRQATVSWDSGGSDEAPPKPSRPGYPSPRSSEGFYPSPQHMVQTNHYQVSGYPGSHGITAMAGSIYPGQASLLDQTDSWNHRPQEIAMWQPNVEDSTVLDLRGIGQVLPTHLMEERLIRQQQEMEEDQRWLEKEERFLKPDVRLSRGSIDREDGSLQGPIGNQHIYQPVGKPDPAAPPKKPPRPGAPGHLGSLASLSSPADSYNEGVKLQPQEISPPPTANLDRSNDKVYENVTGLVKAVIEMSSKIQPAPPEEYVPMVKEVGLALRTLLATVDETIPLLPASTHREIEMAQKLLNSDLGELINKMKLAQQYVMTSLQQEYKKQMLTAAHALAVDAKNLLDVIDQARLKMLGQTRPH

[10] = target: Tyrosine-protein kinase Fyn (Homo sapiens, UniProt P06241); type: functional
Tyrosine-protein kinase Fyn, sequence (P06241 whole entry): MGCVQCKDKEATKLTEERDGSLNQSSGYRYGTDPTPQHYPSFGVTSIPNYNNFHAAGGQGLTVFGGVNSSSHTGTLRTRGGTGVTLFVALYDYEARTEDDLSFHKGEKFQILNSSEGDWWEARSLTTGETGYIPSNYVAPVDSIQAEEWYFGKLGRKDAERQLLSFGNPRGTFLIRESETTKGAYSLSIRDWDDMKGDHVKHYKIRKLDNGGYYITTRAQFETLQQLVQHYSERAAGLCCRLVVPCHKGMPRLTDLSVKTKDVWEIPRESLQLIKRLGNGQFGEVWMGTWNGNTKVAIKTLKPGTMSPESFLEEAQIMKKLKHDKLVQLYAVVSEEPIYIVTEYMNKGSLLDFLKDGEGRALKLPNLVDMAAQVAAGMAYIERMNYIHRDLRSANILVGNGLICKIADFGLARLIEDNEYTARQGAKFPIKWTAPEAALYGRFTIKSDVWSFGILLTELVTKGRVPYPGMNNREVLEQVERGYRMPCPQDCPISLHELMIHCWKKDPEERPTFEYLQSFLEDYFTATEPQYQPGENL

[11] = target: Macrophage colony-stimulating factor 1 receptor (Homo sapiens, UniProt P07333); type: functional;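 also: value comes from the Navigating the Kinome screening panel, CSF1R member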
Macrophage colony-stimulating factor 1 receptor, sequence (P07333 whole entry): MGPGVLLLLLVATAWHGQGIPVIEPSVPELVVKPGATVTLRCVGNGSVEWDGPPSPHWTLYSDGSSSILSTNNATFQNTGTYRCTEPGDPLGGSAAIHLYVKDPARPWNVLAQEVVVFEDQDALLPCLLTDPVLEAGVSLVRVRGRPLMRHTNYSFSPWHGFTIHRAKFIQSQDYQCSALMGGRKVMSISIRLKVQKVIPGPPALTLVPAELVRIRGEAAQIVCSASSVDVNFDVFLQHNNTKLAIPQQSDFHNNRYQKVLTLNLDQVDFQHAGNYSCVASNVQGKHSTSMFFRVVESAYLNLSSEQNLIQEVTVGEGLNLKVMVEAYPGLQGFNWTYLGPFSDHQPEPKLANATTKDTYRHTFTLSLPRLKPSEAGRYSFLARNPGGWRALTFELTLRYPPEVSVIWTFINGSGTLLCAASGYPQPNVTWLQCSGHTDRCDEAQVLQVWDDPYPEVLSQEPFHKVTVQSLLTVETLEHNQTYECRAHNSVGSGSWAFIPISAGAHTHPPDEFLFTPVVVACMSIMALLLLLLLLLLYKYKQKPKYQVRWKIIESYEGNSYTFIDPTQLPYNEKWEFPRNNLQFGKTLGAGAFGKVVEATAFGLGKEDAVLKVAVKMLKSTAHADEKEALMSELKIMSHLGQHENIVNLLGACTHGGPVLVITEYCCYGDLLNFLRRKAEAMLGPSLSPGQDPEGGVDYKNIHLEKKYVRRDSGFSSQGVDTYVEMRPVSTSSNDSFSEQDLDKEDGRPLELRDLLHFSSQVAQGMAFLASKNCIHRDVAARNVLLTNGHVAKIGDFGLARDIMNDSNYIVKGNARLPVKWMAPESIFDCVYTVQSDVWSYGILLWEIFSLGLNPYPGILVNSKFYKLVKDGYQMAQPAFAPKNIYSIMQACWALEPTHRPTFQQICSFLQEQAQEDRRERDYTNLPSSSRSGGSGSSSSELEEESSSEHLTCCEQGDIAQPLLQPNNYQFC
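For IC50 in this document: cell viability measured after two days of compound exposure.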

Compound: O=C(NC1=C(NC2CCS(=O)(=O)C2)C(=O)c2ccccc2C1=O)c1ccccc1 (configuration not stated)
AC50 [1]: 36.5 µM (active)

Compound: CCCC(=O)NC(c1ccc(N(C)C)cc1)c1ccc2cccnc2c1O (configuration not stated)
IC50 [2]: 1.55 µM (active) | EC50 [3]: 0.729 µM (active) | AC50 [4]: 0.916 µM (active) | AC50 [5]: 0.745 µM (active)

Ki [6]: > 2.51 µM (inactive) | Ki [7]: > 3.16 µM (inactive) | Ki [9]: > 2.51 µM (inactive) | Ki (Focal adhesion kinase 1): 2 µM (active) | Ki [10]: > 6.31 µM (inactive) | Ki [11]: > 2.51 µM (inactive)
Compound: O=C1NC(=O)C(c2c[nH]c3ccccc23)=C1c1nc(N2CCNCC2)nc2ccccc12
Ki [8]: 0.631 µM (active)
